The NIST ThermoML archive (doi:10.1021/acs.jced.7b00996)
Numbers after ± are expanded uncertainties.

Conditions: 100 kPa, Liquid; for viscosity: Capillary tube (Ostwald / Ubbelohde) method; for mass density: Vibrating tube method

CCC(C)CO (stereo unspecified) [2-methyl-1-butanol]
viscosity (288.15 K): 6.451 ± 0.13 mPa·s
mass density (288.15 K): 823.02 ± 0.61 kg/m3
viscosity (293.15 K): 5.285 ± 0.11 mPa·s
mass density (293.15 K): 819.56 ± 0.61 kg/m3
viscosity (298.15 K): 4.492 ± 0.093 mPa·s
mass density (298.15 K): 815.82 ± 0.61 kg/m3
viscosity (303.15 K): 3.813 ± 0.079 mPa·s
mass density (303.15 K): 812.03 ± 0.61 kg/m3
viscosity (308.15 K): 3.258 ± 0.068 mPa·s
mass density (308.15 K): 808.2 ± 0.61 kg/m3
viscosity (313.15 K): 2.777 ± 0.058 mPa·s
mass density (313.15 K): 804.33 ± 0.61 kg/m3
viscosity (318.15 K): 2.375 ± 0.049 mPa·s
mass density (318.15 K): 800.39 ± 0.61 kg/m3
viscosity (323.15 K): 2.057 ± 0.043 mPa·s
mass density (323.15 K): 796.39 ± 0.61 kg/m3
viscosity (328.15 K): 1.791 ± 0.037 mPa·s
mass density (328.15 K): 792.34 ± 0.61 kg/m3
viscosity (333.15 K): 1.573 ± 0.033 mPa·s
mass density (333.15 K): 788.2 ± 0.61 kg/m3
viscosity (338.15 K): 1.377 ± 0.029 mPa·s
mass density (338.15 K): 783.84 ± 0.61 kg/m3

CCCCCO [pentan-1-ol]
viscosity (288.15 K): 4.7 ± 0.097 mPa·s
mass density (288.15 K): 818.59 ± 0.61 kg/m3
viscosity (293.15 K): 4.045 ± 0.084 mPa·s
mass density (293.15 K): 814.89 ± 0.61 kg/m3
viscosity (298.15 K): 3.49 ± 0.072 mPa·s
mass density (298.15 K): 811.23 ± 0.61 kg/m3
viscosity (303.15 K): 3.034 ± 0.063 mPa·s
mass density (303.15 K): 807.55 ± 0.61 kg/m3
viscosity (308.15 K): 2.674 ± 0.055 mPa·s
mass density (308.15 K): 803.83 ± 0.61 kg/m3
viscosity (313.15 K): 2.356 ± 0.049 mPa·s
mass density (313.15 K): 800.08 ± 0.61 kg/m3
viscosity (318.15 K): 2.052 ± 0.043 mPa·s
mass density (318.15 K): 796.29 ± 0.61 kg/m3
viscosity (323.15 K): 1.811 ± 0.038 mPa·s
mass density (323.15 K): 792.46 ± 0.61 kg/m3
viscosity (328.15 K): 1.609 ± 0.033 mPa·s
mass density (328.15 K): 788.56 ± 0.61 kg/m3
viscosity (333.15 K): 1.433 ± 0.03 mPa·s
mass density (333.15 K): 784.66 ± 0.61 kg/m3
viscosity (338.15 K): 1.284 ± 0.027 mPa·s
mass density (338.15 K): 780.7 ± 0.61 kg/m3

CCCC(C)O (stereo unspecified) [pentan-2-ol]
viscosity (288.15 K): 5.063 ± 0.11 mPa·s
mass density (288.15 K): 813.55 ± 0.61 kg/m3
viscosity (293.15 K): 4.172 ± 0.087 mPa·s
mass density (293.15 K): 809.59 ± 0.61 kg/m3
viscosity (298.15 K): 3.412 ± 0.071 mPa·s
mass density (298.15 K): 805.55 ± 0.61 kg/m3
viscosity (303.15 K): 2.825 ± 0.059 mPa·s
mass density (303.15 K): 801.44 ± 0.61 kg/m3
viscosity (308.15 K): 2.34 ± 0.049 mPa·s
mass density (308.15 K): 797.25 ± 0.61 kg/m3
viscosity (313.15 K): 1.993 ± 0.041 mPa·s
mass density (313.15 K): 792.98 ± 0.61 kg/m3
viscosity (318.15 K): 1.704 ± 0.035 mPa·s
mass density (318.15 K): 788.63 ± 0.61 kg/m3
viscosity (323.15 K): 1.475 ± 0.031 mPa·s
mass density (323.15 K): 784.19 ± 0.61 kg/m3
viscosity (328.15 K): 1.303 ± 0.027 mPa·s
mass density (328.15 K): 779.67 ± 0.61 kg/m3
viscosity (333.15 K): 1.135 ± 0.024 mPa·s
mass density (333.15 K): 775.07 ± 0.61 kg/m3
viscosity (338.15 K): 1.012 ± 0.021 mPa·s
mass density (338.15 K): 770.37 ± 0.61 kg/m3
